# Experimental data as given in BindingDB's records for doi:10.1021/jm010212m (Purdue University, 2001).
# Target: T1, Gag-Pol polyprotein [588-1027]/[588-1147] (Human immunodeficiency virus 1, UniProt P04585)
# T1 construct: 588-1027; 588-1147
# Experiment: HIV-1 RT Assay
Compound,IC50 (pH 7.9),IC50
"COC(=O)c1cc(C(=CCCCc2ccccc2)c2cc(Br)c(OC)c(C(=O)OC)c2)cc(Br)c1OC [1,1-Bis[3-bromo-4-methoxy-5-(methoxycarbonyl)phenyl]-5-phenyl-1-pentene]",> 100 µM,
"COC(=O)c1cc(C(=CCCCc2ccccc2)c2cc(Cl)c(OC)c(C(=O)OC)c2)cc(Cl)c1OC [1,1-Bis[3-chloro-4-methoxy-5-(methoxycarbonyl)phenyl]-5-phenyl-1-pentene]",> 100 µM,
"COC(=O)c1cc(C(=CCCCC(=O)N2CCCCC2)c2cc(Cl)c(OC)c(C(=O)OC)c2)cc(Cl)c1OC [6,6-Bis(3-chloro-4-methoxy-5-methoxycarbonylphenyl)-1-piperidylhex-5-en-1-one]",,> 100 µM
COC(=O)CCCC=C(c1cc(C(=O)OC)c(OC)c(C(F)(F)F)c1)c1cc(C(=O)OC)c(OC)c(C(F)(F)F)c1 [Alkenyldiarylmethane (ADAM) 18a],> 200 µM,
COC(=O)c1cc(C(=CCCCC(=O)OC(C)C)c2cc(Cl)c(OC)c(C(=O)OC)c2)cc(Cl)c1OC [Alkenyldiarylmethane (ADAM) 25a],> 100 µM,
COC(=O)c1cc(C(=CCCCC(OC)OC)c2cc(Cl)c(OC)c(C(=O)OC)c2)cc(Cl)c1OC [Alkenyldiarylmethane (ADAM) 38a],,> 100 µM
COC(=O)c1cc(C(=CCCNC(C)=O)c2cc(Cl)c(OC)c(C(=O)OC)c2)cc(Cl)c1OC [Methyl 5-{4-(Acetylamino)-1-[3-chloro-4-methoxy-5-(methoxycarbonyl)phenyl]but-1-enyl}-3-chloro-2-methoxybenzoate],,> 100 µM
COC(=O)c1cc(C(=CCCCC(=O)OCC[Si](C)(C)C)c2cc(C)c(OC)c(C(=O)OC)c2)cc(C)c1OC [methyl 2-methoxy-5-{1-[4-methoxy-3-(methoxycarbonyl)-5-methylphenyl]-6-oxo-6-[2-(trimethylsilyl)ethoxy]hex-1-en-1-yl}-3-methylbenzoate],,> 100 µM
CCNC(=O)NCCC=C(c1cc(Cl)c(OC)c(C(=O)OC)c1)c1cc(Cl)c(OC)c(C(=O)OC)c1 [methyl 3-chloro-5-{1-[3-chloro-4-methoxy-5-(methoxycarbonyl)phenyl]-4-[(ethylcarbamoyl)amino]but-1-en-1-yl}-2-methoxybenzoate],,> 100 µM
CNC(=S)NCCC=C(c1cc(Cl)c(OC)c(C(=O)OC)c1)c1cc(Cl)c(OC)c(C(=O)OC)c1 [methyl 3-chloro-5-{1-[3-chloro-4-methoxy-5-(methoxycarbonyl)phenyl]-4-[(methylcarbamothioyl)amino]but-1-en-1-yl}-2-methoxybenzoate],,> 100 µM
